Legend:
[1] = system: actinic keratoses; assay: Photodynamic treatment of actinic keratoses lesions with topical photosensitiser pro-drug and red OLED; details: 20% topical solution, illuminated with red OLED about 14-18 hours after application
[2] = system: presumed ocular histoplasmosis; parameters: species or system person; details: in vivo, iv
[3] = system: pathological myopia; assay: Verteporphin photodynamic therapy of pathological myopia with red OLED; format: in vivo, person; details: about 6 mg/m^2 intravenously, retina illuminated with red OLED about 15 minutes after start of infusion
[4] = system: age-related macular degeneration; assay: Verteporphin photodynamic therapy of age-related macular degeneration with red OLED; format: in vivo, person; details: about 6 mg/m^2 intravenously, retina illuminated with red OLED about 15 minutes after start of infusion
[5] = system: CHO-K1 (Chinese Hamster Ovarian Cancer, ATCC, CRL-2243) cell line; assay: Ex-vivo photodynamic efficacy study of ALA with red OLED light (microscopy, PpIX fluorescence, MTT cell viability)

## Cl.NCC(=O)CCC(=O)O [5-Aminolevulinic acid HCl]
[1]
  number or severity of the lesions after the treatment: reduced

## C=Cc1c(C)c2cc3nc(cc4[nH]c(cc5nc(cc1[nH]2)C(C)=C5CCC(=O)O)c(CCC(=O)OC)c4C)[C@@]1(C)C3=CC=C(C(=O)OC)[C@H]1C(=O)OC [Verteporphin]
[2]
  patient's vision after treatment: stabilized
[3]
  patient's vision after treatment: stabilized
[4]
  patient's vision after treatment: stabilized

## NCC(=O)CCC(=O)O [ALA, 5-aminolevulinic acid]
[5]; Cricetulus griseus, CHO-K1, light or radiation study, read-out: cell destroyed compared with reference (MTT cell viability)
  cytotoxicity at 1000 µM: ~90%
[5]; after 25 J/cm^2 red light irradiation, leafy type cells transform to droplet type (FIG. 9)
  cell morphology under optical microscope after light irradiation: significant and irreversible cell death
[5]; at the light dose of 27 J/cm^2
  concentration of ALA required: at least 1 mM

— US8808879B2, “Phototherapy devices and methods comprising substituted carbazole compounds” (Nitto Denko Corporation, priority 2010, dated 2014)
